{"source": "paper PMC10256809", "about": "“Unlocking the potentials of cyanobacterial photosynthesis for directly converting carbon dioxide into glucose” (Nature Communications, 2023)", "key": {"Glk1": {"target": "T1, Glk1 (Synechococcus elongatus, UniProt Q31RR6)", "T1 construct": "gene glk", "T1 sequence (Q31RR6 1-345)": "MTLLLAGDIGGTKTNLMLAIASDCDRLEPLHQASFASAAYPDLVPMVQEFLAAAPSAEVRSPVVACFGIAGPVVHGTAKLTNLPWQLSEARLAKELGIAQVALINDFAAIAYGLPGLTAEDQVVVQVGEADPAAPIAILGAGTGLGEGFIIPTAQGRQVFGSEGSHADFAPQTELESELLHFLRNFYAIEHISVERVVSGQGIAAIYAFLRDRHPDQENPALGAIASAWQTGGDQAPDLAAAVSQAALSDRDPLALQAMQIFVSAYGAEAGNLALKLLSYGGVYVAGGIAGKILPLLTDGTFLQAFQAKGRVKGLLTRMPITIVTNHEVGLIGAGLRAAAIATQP", "experiment": "PK/LDH-coupled sugar phosphorylation assay, […] nm", "type": "biochemical", "conditions": "10 mM sugar, 2.5 mM ATP, 4 mM MgCl2, 20 mM KCl, Tris-HCl pH 7.8"}, "Glk2": {"target": "T2, Glk2 (Synechococcus elongatus, UniProt Q31LC8)", "T2 construct": "gene Synpcc7942_2111", "T2 sequence (Q31LC8 1-302)": "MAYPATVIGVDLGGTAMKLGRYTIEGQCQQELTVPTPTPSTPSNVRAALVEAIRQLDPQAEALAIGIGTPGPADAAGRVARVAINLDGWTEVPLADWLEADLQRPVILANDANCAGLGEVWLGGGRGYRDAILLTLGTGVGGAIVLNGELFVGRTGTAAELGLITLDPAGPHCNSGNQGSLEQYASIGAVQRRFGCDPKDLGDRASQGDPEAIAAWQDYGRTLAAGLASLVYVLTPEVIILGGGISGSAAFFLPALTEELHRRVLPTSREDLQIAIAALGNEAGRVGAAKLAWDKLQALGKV", "experiment": "PK/LDH-coupled sugar phosphorylation assay, […] nm", "type": "biochemical", "conditions": "10 mM sugar, 2.5 mM ATP, 4 mM MgCl2, 20 mM KCl, Tris-HCl pH 7.8"}}}
{"smiles": "OC[C@H]1OC(O)[C@H](O)[C@@H](O)[C@@H]1O", "note": "(some centres unmarked) [glucose]", "values": [{"measurement": "PK/LDH-coupled sugar phosphorylation assay, 340 nm", "setting": "Glk1", "value": "both the two glucokinases showed phosphorylation activities on some other sugars besides glucose"}, {"measurement": "PK/LDH-coupled sugar phosphorylation assay, 340 nm", "setting": "Glk2", "value": "both the two glucokinases showed phosphorylation activities on some other sugars besides glucose"}]}
